Source: US20100105663A1, “2-(HETEROARYL) ALKYL INDAZOLE 6-PHENYL AND THIENYL METHYL AMIDE AS THROMBIN INHIBITORS” (BAYER HEALTHCARE AG, priority 2006, published 2010)

Target: human thrombin (Homo sapiens, UniProt P00734)
Assay: Measurement of thrombin inhibition (in vitro enzyme assay)
Type: biochemical
Conditions: human thrombin 0.06 nmol/l, 15 min incubation at 22° C., pH 7.4; substrate 5 μmol/l Boc-Asp(OBzl)-Pro-Arg-AMC, 30 min, fluorescence
Procedure: For determination of the thrombin inhibition of the aforementioned substances, a biochemical test system is used, in which the conversion of a thrombin substrate is used for determining the enzymatic activity of human thrombin. In this, thrombin cleaves aminomethylcoumarin from the peptic substrate, and this is measured by fluorescence. The determinations are carried out in microtitre plates.
The test substances are dissolved at different concentrations in dimethylsulphoxide and incubated for 15 min with human thrombin (0.06 nmol/l dissolved in 50 mmol/l Tris-buffer [C,C,C-Tris(hydroxymethyl)-aminomethane], 100 mmol/l NaCl, 0.1% BSA [bovine serum albumin], pH 7.4) at 22° C. Then the substrate (5 μmol/l Boc-Asp(OBzl)-Pro-Arg-AMC from the company Bachem) is added. After incubation for 30 min the sample is excited at a wavelength of 360 nm and the emission at 460 nm is measured. The measured emissions of the test preparations with test substance are compared with the control preparations without test substance (dimethylsulphoxide only, instead of test substance in dimethylsulphoxide) and IC50 values are calculated from the concentration-effect relations.

## O=C(NCc1cccc(Cl)c1)c1ccc2cn(CCN3CCOC3=O)nc2c1 [Example 4, N-(3-Chlorobenzyl)-2-[2-(2-oxo-1,3-oxazolidin-3-yl)ethyl]-2H-indazole-6-carboxamide]
  IC50: 216 nM

## Cc1nn(CCn2cc3ccc(C(=O)NCc4cccc(Cl)c4)cc3n2)c(C)c1Cl [Example 26, N-(3-Chlorobenzyl)-2-[2-(4-chloro-3,5-dimethyl-1H-pyrazol-1-yl)ethyl]-2H-indazole-6-carboxamide]
  IC50: 110 nM

## CN(C)C(Cn1cc2ccc(C(=O)NCc3cccc(Cl)c3)cc2n1)c1ccccc1Cl (stereo not drawn) [Example 49, N-(3-Chlorobenzyl)-2-[2-(2-chlorophenyl)-2-(dimethylamino)ethyl]-2H-indazole-6-carboxamide]
  IC50: 26 nM
